This note sets out measurements from ChEMBL document CHEMBL4184141, “Investigating the Antibacterial Activity of Biphenylthiazoles against Methicillin- and Vancomycin-Resistant Staphylococcus aureus (MRSA and VRSA)” (J Med Chem, 2017).

Values after ≈ are worked out from the molar mass of the structure shown. Where only a bound is given, the exact number is not on record here.

The test system of the test is Staphylococcus aureus. The test can be described thus: Antibacterial activity against methicillin-resistant Staphylococcus aureus 2658 RCMB up to 20 hrs by broth microdilution assay. It counts as functional. On the technique in general: Broth dilution looks for growth in wells or tubes with falling amounts of substance.
Broadly, the MIC is the smallest concentration in the dilution series that meets the test's criterion for growth inhibition. Low values mean greater potency, high ones weaker potency. `Cc1nc(-c2ccc(-c3ccccc3)cc2)sc1-c1ccnc(N)n1` showed an MIC of 6.25 µg/mL (≈ 18.1 µM).
The result for `Cc1nc(-c2ccc(-c3ccccc3)cc2)sc1-c1ccnc(NC#N)n1` reads over 25 µg/mL; that for `Cc1nc(-c2ccc(-c3ccccc3)cc2)sc1-c1ccnc(N2CC(O)C2)n1`, 3.12 µg/mL (≈ 7.79 µM).
Compound `CCCCc1ccc(-c2nc(C)c(-c3ccnc(N)n3)s2)cc1` gave an MIC of 3.6 µg/mL (≈ 11.1 µM).
`Cc1nc(-c2ccc(-c3ccccc3)cc2)sc1-c1ccnc(NC(N)=S)n1` displayed an MIC of over 25 µg/mL.
The result for `Cc1nc(-c2ccc(-c3ccccc3)cc2)sc1-c1ccncn1` reads over 25 µg/mL; that for `Cc1nc(-c2ccc(-c3ccccc3)cc2)sc1-c1ccnc(NC(=N)N2CCCC2)n1`, 12.5 µg/mL (≈ 28.4 µM); that for `CNc1nccc(-c2sc(-c3ccc(-c4ccccc4)cc3)nc2C)n1`, 12.5 µg/mL (≈ 34.9 µM).
As to `Cc1nc(-c2ccc(-c3ccccc3)cc2)sc1-c1ccnc(-c2ccccn2)n1`, the MIC was over 25 µg/mL.
Next, `CCCCNc1nccc(-c2sc(-c3ccc(-c4ccccc4)cc3)nc2C)n1`: over 25 µg/mL; `Cc1nc(-c2ccc(-c3ccccc3)cc2)sc1-c1ccnc(N2CCOCC2)n1`: 3.12 µg/mL (≈ 7.53 µM).
Next, `CCNc1nccc(-c2sc(-c3ccc(-c4ccccc4)cc3)nc2C)n1`: 6.25 µg/mL (≈ 16.8 µM); `Cc1nc(-c2ccc(-c3ccccc3)cc2)sc1-c1ccnc(-c2ccncc2)n1`: over 25 µg/mL.
`Cc1nc(-c2ccc(-c3ccccc3)cc2)sc1-c1ccnc(NC(=N)c2ccncc2)n1` registered an MIC of over 25 µg/mL.
Next, `Cc1nc(-c2ccc(-c3ccccc3)cc2)sc1-c1ccnc(NN)n1`: 1.56 µg/mL (≈ 4.34 µM).
Next, `Cc1nc(-c2ccc(-c3ccccc3)cc2)sc1-c1ccnc(N2CCCCC2)n1`: over 25 µg/mL; `Cc1nc(-c2ccc(-c3ccccc3)cc2)sc1-c1ccnc(NC(=N)n2cccn2)n1`: over 25 µg/mL.
The result for `Cc1nc(-c2ccc(-c3ccccc3)cc2)sc1-c1ccnc(N2CCCC2)n1` reads over 25 µg/mL; that for `Cc1nc(-c2ccc(-c3ccccc3)cc2)sc1-c1ccnc(NC(C)C)n1`, over 25 µg/mL; that for `Cc1nc(-c2ccc(-c3ccccc3)cc2)sc1-c1ccnc(NN2CCOCC2)n1`, 3.12 µg/mL (≈ 7.26 µM).
`Cc1nc(-c2ccc(-c3ccccc3)cc2)sc1-c1ccnc(N2CCC2)n1` came in with an MIC of over 25 µg/mL.
The result for `Cc1nc(-c2ccc(-c3ccccc3)cc2)sc1-c1ccnc(NC(=N)c2cccnc2)n1` reads over 25 µg/mL; that for `CCCNc1nccc(-c2sc(-c3ccc(-c4ccccc4)cc3)nc2C)n1`, over 25 µg/mL; that for `Cc1nc(-c2ccc(-c3ccccc3)cc2)sc1-c1ccnc(NC(=N)c2ccccn2)n1`, over 25 µg/mL.
`Cc1nc(-c2ccc(-c3ccccc3)cc2)sc1-c1ccnc(N=C(N(C)C)N(C)C)n1`: the MIC was over 25 µg/mL.
Next, `CCN(CC)c1nccc(-c2sc(-c3ccc(-c4ccccc4)cc3)nc2C)n1`: over 25 µg/mL; `Cc1nc(-c2ccc(-c3ccccc3)cc2)sc1-c1ccnc(NC2CCCC2)n1`: over 25 µg/mL; `Cc1nc(-c2ccc(-c3ccccc3)cc2)sc1-c1ccnc(-c2cccnc2)n1`: over 25 µg/mL.
Next, `Cc1nc(-c2ccc(-c3ccccc3)cc2)sc1-c1ccnc(NC(=N)N2CCCCC2)n1`: over 25 µg/mL; `Cc1nc(-c2ccc(-c3ccccc3)cc2)sc1-c1ccnc(N(C)C)n1`: over 25 µg/mL.
The result for `Cc1nc(-c2ccc(-c3ccccc3)cc2)sc1-c1ccnc(NC2CCCCC2)n1` reads over 25 µg/mL.
